A short description of one data set: Solubility. To be noted: DMSO-10% DMEM medium (1:99 v/v, comparable to cell media).
Another data set deals with T98G cells. Nature of the data set: Neurosphere assay. Type of data set: cell-based, human. The note with it: T98G, 20, 80 and 160 μM. As for the experimental part:
The neurosphere assay is one of the best methods for analysing the stem cell capacity of isolated brain cells.[23] The stem cell media was used to grow T98G cells through single-cell division within 3 days and subsequently the development of small-diameter “neurosphere-like” tumour spheres within 7 days. After 12–14 days of culture, a phase-contrast microscope was used to take the image of the tumour spheres. To promote differentiation, DMEM (containing 10% FBS) medium was added to the tumour spheres.
Fig. 5 Neurosphere assay using different concentrations: (b) 20 μM, (c) 80 μM and (d) 160 μM of complex 4c against the T98G cell line; (a) pre-treatment (concentration of 4c = 0 μM).
Serum-free DMEM/F-12 (1 : 1), B27 (1 : 50), EGF (20 μg L^−1), bFGF (20 μg L^−1), antibiotic (Gibco) were added to stem cell media. The cells were grown in a tissue culture incubator with 5% CO2 at […]. Serum-free media were changed twice a week.

In data set [1] the test system is TNF-α-induced NF-κB phosphorylation. The data set is described as follows: Real-time RT-PCR. Type of data set: cell-based, human. The note with it: glioma cells, 48 h. The source says: It is known that the NF-κB pathway plays an important role in the modulation of inflammatory and immune responses.[25] Under normal conditions, NF-κB is found in the cytoplasm as the dimer complex p65/p50 with the kappa B inhibitor forming the NF-κB-IκB complex which involves TNF-α. As expected, the treatment with TNF-α induces IκB protein phosphorylation and the NF-κB dimer p65/p50 is translocated into the nucleus. Inside the nucleus, the NF-κB dimer binds to its own DNA and the κB site, initiating the transcription of many genes associated with proliferation as well as the invasion of cells, anti-apoptosis along with drug resistivity (e.g., Bcl-2 family, Bcl-XL, cyclin D1, c-myc, interleukin-1 and 6 (IL-6), cyclooxygenase-2 (COX-2), inducible NO-synthase (iNOS)). Complex 4c reduced TNF-α-induced NF-κB phosphorylation at 48 h. In summary, complex 4c inhibited the TNF-α-induced NF-κB phosphorylation in glioma cells and NF-κB could be validated as a targeted therapeutic molecule for tumour diseases (Fig. S5 ^†).
Cultured cells U87MG and T98G were treated with various concentrations of 4c (20–160 μM) for 48 h. Total RNA was extracted and complementary DNA (cDNA) was transcribed using Qiazol reagent and Thermo Scientific Revert Aid First Strand cDNA Synthesis Kit. […] The amplified products were analyzed by a melting curve analysis.

For another data set, the system named is Ct-DNA. Nature of the data set: Viscosity measurement with Ct-DNA. Type of data set: binding, calf. To be noted: with respect to EtBr. As for the experimental part: The hydrodynamic study of the viscosity was conducted to screen the binding nature of the designated complexes 4c and 4d with Ct-DNA.
with respect to cisplatin.
UV–Visible, fluorescence spectroscopies and cyclic voltammetry, J. Photochem.
2. M. Shamsi-Sani, F. Hirini, SM. Abedini, M. Seddighi, Synthesis of benzimidazole
dipyridoquinoxaline and dipyridophenazine ligands as photosensitizing antennae:
curvature in Stern-Volmer plots, J. Am. Chem. Soc., 1983, 105, 1494–1498. (b) B.
hypoxia active, GSH-resistant cancer cytoselective and mitochondria-targeting
cancer stem cell therapeutic agents. Dalton Trans., 2022, 51, 5494-5514.
derivative with bovine serum albumin, J. Pharm. Anal., 2016, 6, 56–63.
6. K. Jeyalakshmi, J. Haribabu, C. Balachandran, S. Swaminathan, N. S. P.

The test system of another data set is zebrafish embryos. The note with it: embryos exposed for 5 h to 100 μM.
The next data set relates to LN229. The data set is described as follows: MTT cytotoxicity assay, LN229. Type of data set: cell-based, human. The note with it: 72 h incubation. The protocol:
The cytotoxic activity of prepared RAPTA complexes (4a–4h) was evaluated by following the standard procedure of the MTT experiment against a series of glioblastoma cells (LN 229, T98, U87MG) in triplicate. In order to accomplish this study, cells were maintained for 72 h with complexes of various concentrations ranging from 2–160 μM, taking cisplatin as a typical positive control.[22]
RAPTA complexes were dissolved in 1% DMSO, and 0.9% NaCl aqueous solution was used to dissolve cisplatin. A cell suspension was prepared and the number of cells taken was 2.5 × 10^4 mL^−1. The cells were seeded in 96-well plates (200 μL per well) and allowed 80% confluence prior to treatment. The cells were formerly treated with various concentrations (2.5–160 μM) of complex 4a–h while the control group was treated with PBS […]. After the 72 hours of incubation, 0.5% MTT solution was added to each well (20 μL) and further incubated for 4 hours at […]. The formazan crystals that were formed were dissolved in 150 μL DMSO and then the OD was measured by a microplate reader at 540 nm. The % growth inhibition of the control and treated cells were calculated and represented as the growth inhibition percentage as explained below.% growth inhibition = 100 − [(AD × 100)/AB]where AD is the absorbance measured in wells containing the treated and control samples and AB is the measured absorbance for the wells with media and a vehicle that served as the blank. IC50 was calculated using Graphpad Prism (version 6.0) where % cell viability was plotted against drug concentration.

Experimental for zebrafish embryos: Zebrafish were purchased from Zebrafish CRO, Pentagrit Discovery, Chennai 600100. All the procedures were conducted with reference to the guidelines of OECD 203 (OECD 203, 1992).[29] The local wild-type zebrafish strain weighing approximately 500–600 mg (2–3 months old) were maintained under standard laboratory conditions at 28 °C under a 14 : 10 h light/dark cycle with the conductivity of the water being 350 μS, maintained at pH 7.2–7.4. All the animal experiments including surgical procedures were conducted according to the procedures of the Committee for the Purpose of Control and Supervision of Experiments on Animals (CPCSEA), Govt. of India, as instructed by Institutional Animal ethical guidelines (VIT/IAEC/2019/16/Aug10/15), VIT University.[29] All animal procedures were performed in accordance with the Guidelines for Care and Use of Laboratory Animals of “VIT” University and approved by the Animal Ethics Committee of “VIT”.
Freshly laid eggs [<1 h post-fertilisation (hpf)] were transferred to 50 ml crystallising dishes filled with the respective test solutions. After the successful control of fertilisation, the eggs were separately transferred to 24-well plates with 2 ml of test solution per well. […] The embryos were analysed under an Olympus CKX41 inverted microscope (Olympus, Hamburg, Germany).

In “Solubility”, `C1N2CN3CN1CP(C2)C3.Cc1ccc(C(C)C)cc1.Cc1ccnc2c1ccc1c(C)ccnc12.F[P-](F)(F)(F)(F)F.F[P-](F)(F)(F)(F)F.[Ru+2]` [4c, [(η^6-p-Cymene)Ru^II(κ^2-N,N-4,7dimethylphenanthroline)(PTA)]·2PF6] came in with a solubility of 18 mM. For the same compound, the effect on neurospheres result in the data set with T98G cells is listed as “Complete developmental neurotoxicity”. In data set [1], the “TNF-α-induced NF-κB phosphorylation” value was “reduced”. In the data set with Ct-DNA, the “relative viscosity of Ct-DNA on increasing complex concentration” value was “abrupt increase in viscosity up to ri = 2”. The “morbidity or mortality of embryos” value in the data set on zebrafish embryos is “No significant morbidity or mortality”. For the same compound, the IC50 in the data set with LN229 worked out at 0.88 ± 0.02 µM.
`C1N2CN3CN1CP(C2)C3.Cc1ccc(C(C)C)cc1.F[P-](F)(F)(F)(F)F.F[P-](F)(F)(F)(F)F.[Ru+2].c1ccc(-c2ccnc3c2ccc2c(-c4ccccc4)ccnc23)cc1` [4d, [(η^6-p-Cymene)Ru^II(κ^2-N,N-4,7diphenylphenanthroline)(PTA)]·2PF6]: the “relative viscosity of Ct-DNA on increasing complex concentration” value in the data set with Ct-DNA was “steady escalation in the relative viscosity”. The compound also showed a half-inhibitory concentration (IC50) in the data set with LN229 of 0.96 ± 0.02 µM.

The record behind these values is paper PMC9241057, “Ru(II)arene(N^N bpy/phen)-based RAPTA complexes for in vitro anti-tumour activity in human glioblastoma cancer cell lines and in vivo toxicity studies in a zebrafish model” (RSC Advances, 2022).
